Measurements: PubChem BioAssay (NCI)
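Dose response: 5 concentrations. Exposure: 48 h. Format: 96-well plates. Endpoint: linear interpolation; highest concentration if not reached. Here, GI50 denotes the concentration required for 50% inhibition of growth. TGI: total growth inhibition.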

tested on: SF-268 CNS; assay: DTP human tumour cell line panel, 48 h

Structure (SMILES)	TGI [µM]	GI50 [µM]
N#CC1=C(N2CCCC2)NC(=O)CC1=O	> 100	–
CC(C)(C)C1=CC(=CC=C2C=CN(CCCCCCCCCCCO)C=C2)C=C(C(C)(C)C)C1=O	3.83	–
O=C(c1ccc(Cl)cc1Cl)N(C(=O)N1CCCCC1)c1ccccc1	> 100	–
CSc1ccc(C2C(Cl)C(=O)N2NC(=O)c2c(Cl)c(Cl)c(Cl)c(Cl)c2-c2nc3ccccc3[nH]2)cc1 (stereo not drawn)	64.4	–
CC(C)CC(N)C(=O)O (stereo not drawn)	> 100	–
O=C1NC(Nc2cccc(Cl)c2)=N/C1=C\c1ccc(Cl)c(Cl)c1	19.4	–
CCCCCCCCCCC(O)C1CCC(C2CCC(C(O)CCCCC(O)CCCCCC(O)CC3=CC(C)OC3=O)O2)O1 (stereo not drawn)	> 25	> 25

tested on: NCI-H522 lung; assay: DTP human tumour cell line panel, 48 h

Structure (SMILES)	TGI [µM]
N#CC1=C(N2CCCC2)NC(=O)CC1=O	> 100
CC(C)(C)C1=CC(=CC=C2C=CN(CCCCCCCCCCCO)C=C2)C=C(C(C)(C)C)C1=O	1.29
CSc1ccc(C2C(Cl)C(=O)N2NC(=O)c2c(Cl)c(Cl)c(Cl)c(Cl)c2-c2nc3ccccc3[nH]2)cc1 (stereo not drawn)	4.87
CC(C)CC(N)C(=O)O (stereo not drawn)	> 100
O=C1NC(Nc2cccc(Cl)c2)=N/C1=C\c1ccc(Cl)c(Cl)c1	6.62
CCCCCCCCCCC(O)C1CCC(C2CCC(C(O)CCCCC(O)CCCCCC(O)CC3=CC(C)OC3=O)O2)O1 (stereo not drawn)	> 25

tested on: HCT-116 colon; assay: DTP human tumour cell line panel, 48 h

Structure (SMILES)	TGI [µM]	GI50 [µM]
N#CC1=C(N2CCCC2)NC(=O)CC1=O	> 100	–
CC(C)(C)C1=CC(=CC=C2C=CN(CCCCCCCCCCCO)C=C2)C=C(C(C)(C)C)C1=O	3.05	–
O=C(c1ccc(Cl)cc1Cl)N(C(=O)N1CCCCC1)c1ccccc1	> 100	–
CSc1ccc(C2C(Cl)C(=O)N2NC(=O)c2c(Cl)c(Cl)c(Cl)c(Cl)c2-c2nc3ccccc3[nH]2)cc1 (stereo not drawn)	33.7	–
CC(C)CC(N)C(=O)O (stereo not drawn)	> 100	–
O=C1NC(Nc2cccc(Cl)c2)=N/C1=C\c1ccc(Cl)c(Cl)c1	14.2	–
CCCCCCCCCCC(O)C1CCC(C2CCC(C(O)CCCCC(O)CCCCCC(O)CC3=CC(C)OC3=O)O2)O1 (stereo not drawn)	> 25	1.04

tested on: MDA-N; assay: DTP human tumour cell line panel, 48 h

Structure (SMILES)	TGI [µM]	GI50 [µM]
N#CC1=C(N2CCCC2)NC(=O)CC1=O	> 100	–
CC(C)(C)C1=CC(=CC=C2C=CN(CCCCCCCCCCCO)C=C2)C=C(C(C)(C)C)C1=O	3.04	–
O=C(c1ccc(Cl)cc1Cl)N(C(=O)N1CCCCC1)c1ccccc1	> 100	–
CSc1ccc(C2C(Cl)C(=O)N2NC(=O)c2c(Cl)c(Cl)c(Cl)c(Cl)c2-c2nc3ccccc3[nH]2)cc1 (stereo not drawn)	87.9	–
CC(C)CC(N)C(=O)O (stereo not drawn)	> 100	–
O=C1NC(Nc2cccc(Cl)c2)=N/C1=C\c1ccc(Cl)c(Cl)c1	15.8	–
CCCCCCCCCCC(O)C1CCC(C2CCC(C(O)CCCCC(O)CCCCCC(O)CC3=CC(C)OC3=O)O2)O1 (stereo not drawn)	> 25	> 25

tested on: RPMI-8226 leukemia; assay: DTP human tumour cell line panel, 48 h

Structure (SMILES)	TGI [µM]	GI50 [µM]
N#CC1=C(N2CCCC2)NC(=O)CC1=O	> 100	–
CC(C)(C)C1=CC(=CC=C2C=CN(CCCCCCCCCCCO)C=C2)C=C(C(C)(C)C)C1=O	1.94	–
O=C(c1ccc(Cl)cc1Cl)N(C(=O)N1CCCCC1)c1ccccc1	> 100	–
CC(C)CC(N)C(=O)O (stereo not drawn)	> 100	–
O=C1NC(Nc2cccc(Cl)c2)=N/C1=C\c1ccc(Cl)c(Cl)c1	22.7	–
CCCCCCCCCCC(O)C1CCC(C2CCC(C(O)CCCCC(O)CCCCCC(O)CC3=CC(C)OC3=O)O2)O1 (stereo not drawn)	> 25	2

tested on: MCF7 breast; assay: DTP human tumour cell line panel, 48 h

Structure (SMILES)	TGI [µM]	GI50 [µM]
CC(C)(C)C1=CC(=CC=C2C=CN(CCCCCCCCCCCO)C=C2)C=C(C(C)(C)C)C1=O	1.23	–
O=C(c1ccc(Cl)cc1Cl)N(C(=O)N1CCCCC1)c1ccccc1	> 100	–
CSc1ccc(C2C(Cl)C(=O)N2NC(=O)c2c(Cl)c(Cl)c(Cl)c(Cl)c2-c2nc3ccccc3[nH]2)cc1 (stereo not drawn)	> 100	–
CC(C)CC(N)C(=O)O (stereo not drawn)	> 100	–
O=C1NC(Nc2cccc(Cl)c2)=N/C1=C\c1ccc(Cl)c(Cl)c1	11.1	–
CCCCCCCCCCC(O)C1CCC(C2CCC(C(O)CCCCC(O)CCCCCC(O)CC3=CC(C)OC3=O)O2)O1 (stereo not drawn)	> 25	23.5

tested on: SF-295 CNS; assay: DTP human tumour cell line panel, 48 h

Structure (SMILES)	TGI [µM]	GI50 [µM]
N#CC1=C(N2CCCC2)NC(=O)CC1=O	> 100	–
CC(C)(C)C1=CC(=CC=C2C=CN(CCCCCCCCCCCO)C=C2)C=C(C(C)(C)C)C1=O	2.95	–
O=C(c1ccc(Cl)cc1Cl)N(C(=O)N1CCCCC1)c1ccccc1	> 100	–
CSc1ccc(C2C(Cl)C(=O)N2NC(=O)c2c(Cl)c(Cl)c(Cl)c(Cl)c2-c2nc3ccccc3[nH]2)cc1 (stereo not drawn)	> 100	–
CC(C)CC(N)C(=O)O (stereo not drawn)	> 100	–
O=C1NC(Nc2cccc(Cl)c2)=N/C1=C\c1ccc(Cl)c(Cl)c1	17.2	–
CCCCCCCCCCC(O)C1CCC(C2CCC(C(O)CCCCC(O)CCCCCC(O)CC3=CC(C)OC3=O)O2)O1 (stereo not drawn)	> 25	2

tested on: A549 NSCLC; assay: DTP human tumour cell line panel, 48 h

Structure (SMILES)	TGI [µM]
N#CC1=C(N2CCCC2)NC(=O)CC1=O	> 100
